According to PMC4105567, “Aurora Kinases as Druggable Targets in Pediatric Leukemia: Heterogeneity in Target Modulation Activities and Cytotoxicity by Diverse Novel Therapeutic Agents” (PLoS ONE, 2014):
Read-outs that look alike come from different tables or passages of the source.

Legend:
C1 B-ALL cell line = assay: Cytotoxicity assay, C1; type: cell-based, human; details: Homo sapiens, 96 h, four days in culture, Alamar blue assay or automated microscopy, ± SD, three experiments
Description: (§1) Cell lines were cultured in Opti-MEM medium (Gibco, Life Technologies Corporation, Burlington, Ontario) supplemented with 10% heat inactivated fetal bovine serum (FBS) (Gibco), 100 units/ml penicillin and 100 units/ml streptomycin (Gibco) and 0.05 mM 2-mercaptoethanol (Sigma-Aldrich, Oakville, Ontario) in T25 flasks (Nalge Nunc, Rochester, New York) or T75 flasks (Corning Incorporated, Corning, New York). All cell cultures were maintained at 37°C in a humidified incubator with 5% CO2.
(§2) For cytotoxicity profiling of Aurora kinase inhibitors against leukemia cell lines, inhibitors or vehicle control (DMSO, Sigma-Aldrich) were diluted in 100 µl of Opti-MEM per well in 96 well plates (Grenier Bio-One, Monroe, North Carolina) in triplicate at final concentrations ranging from 1×10^−6 to 10 µM. 1×10^4 cells per well were seeded and plates were incubated for 4 days. Following incubation for 4 days, cell survival was quantified by Alamar blue assay (Invitrogen) or automated inverted microscopy using the Celigo Cell Cytometer (Cyntellect, San Diego, California). […] During this period of incubation, the absorbance at 570–620 nm was measured (Opsys MR Plate Reader, Dynex Technologies, Chantilly, Virginia) at various time points, depending on the cell line or sample. Percent survival was calculated by comparing the absorbance ratio of the test well to the control well multiplied by 100%, as indicated in the following formula: […]
(§3) For automated inverted microscopy, the number of cells in each well was determined using the direct cell counting application as described previously. Briefly, following adjustment of image acquisition settings for bright-field imaging, the wells containing cells and appropriate dilutions of inhibitors were individually scanned. Based on these images, analysis parameters, including intensity threshold and cell diameter, were modified for optimal inclusion of viable cells in treated and control wells. These parameters were applied for subsequent replicates involving the same leukemia cell line or sample. The percent survival was then calculated as a ratio of the number of cells in treated wells to the number of cells in control wells multiplied by 100%. Given that Aurora kinase inhibitors interfere with cytokinesis, cells that are committed to death may still contain enlarging but intact cytoplasmic content before the eventual loss of cytoplasmic membrane integrity. The accuracy of Alamar blue assay may be, in theory, affected by the timing of these events.

SEM B-ALL cell line = assay: Cytotoxicity assay, SEM; type: cell-based; details: Homo sapiens, 96 h, four days in culture, Alamar blue assay or automated microscopy, ± SD, three experiments
Description: as §1, §2, §3

B1 B-ALL cell line = assay: Cytotoxicity assay, B1; type: cell-based, human; details: Homo sapiens, 96 h, four days in culture, Alamar blue assay or automated microscopy, ± SD, three experiments
Description: as §1, §2, §3

UOCB1 B-ALL cell line = assay: Cytotoxicity assay, UOCB1; type: cell-based, human; details: Homo sapiens, UoC-B1, 96 h, four days in culture, Alamar blue assay or automated microscopy, ± SD, three experiments
Description: as §1, §2, §3

Nalm6 B-ALL cell line = assay: Cytotoxicity assay, Nalm6; type: cell-based, human; details: Homo sapiens, NALM-6, 96 h, four days in culture, Alamar blue assay or automated microscopy, ± SD, three experiments
Description: as §1, §2, §3

KOPN8 B-ALL cell line = assay: Cytotoxicity assay, KOPN8; type: cell-based, human; details: Homo sapiens, KOPN-8, 96 h, four days in culture, Alamar blue assay or automated microscopy, ± SD, three experiments
Description: as §1, §2, §3

CEM T-ALL cell line = assay: Cytotoxicity assay, CEM; type: cell-based, human; details: Homo sapiens, 96 h, four days in culture, Alamar blue assay or automated microscopy, ± SD, three experiments
Description: as §1, §2, §3

Molt-3 T-ALL cell line = assay: Cytotoxicity assay, Molt-3; type: cell-based, human; details: Homo sapiens, 96 h; T-ALL cell line Molt-3; four days in culture; Alamar blue assay or automated microscopy; ± SD, three experiments
Description: as §1, §2, §3

Molm13 AML cell line = assay: Cytotoxicity assay, Molm13; type: cell-based, human; details: Homo sapiens, MOLM-13, 96 h, four days in culture, Alamar blue assay or automated microscopy, ± SD, three experiments
Description: as §1, §2, §3

MV4-11 AML cell line = assay: Cytotoxicity assay, MV4-11; type: cell-based, human; details: Homo sapiens, 96 h; AML cell line MV4-11; four days in culture; Alamar blue assay or automated microscopy; ± SD, three experiments
Description: as §1, §2, §3

TIB-202 AML cell line = assay: Cytotoxicity assay, TIB-202; type: cell-based, human; details: Homo sapiens, 96 h; AML cell line TIB-202; four days in culture; Alamar blue assay or automated microscopy; ± SD, three experiments
Description: as §1, §2, §3

NB4 APML cell line = assay: Cytotoxicity assay, NB4; type: cell-based, human; details: Homo sapiens, 96 h, four days in culture, Alamar blue assay or automated microscopy, ± SD, three experiments
Description: as §1, §2, §3

HL-60 APML cell line = assay: Cytotoxicity assay, HL-60; type: cell-based, human; details: Homo sapiens, 96 h; APML cell line HL-60; four days in culture; Alamar blue assay or automated microscopy; ± SD, three experiments
Description: as §1, §2, §3

HL-60 RA APML cell line = assay: Cytotoxicity assay, HL-60 RA; type: cell-based, human; details: Homo sapiens, 96 h; APML cell line HL-60 RA; four days in culture; Alamar blue assay or automated microscopy; ± SD, three experiments
Description: as §1, §2, §3

Normal Lymphocytes = assay: Cytotoxicity assay, normal lymphocytes; type: cell-based, human; details: Homo sapiens, Lymphocyte, 96 h; normal lymphocytes (control for non-leukemia cytotoxicity); four days in culture; ± SD, three experiments
Description: (§4) These include B-ALL (Patient #1), relapsed AML (Patient #2), AML/CML (Patient #3), infant ALL (Patient #4), and initial ALL presenting with secondary AML (Patient #5). […] The diluted sample was then layered on a Ficoll-Paque (GE Healthcare, Piscataway, New Jersey) gradient at a 1∶2 ratio of Ficoll to diluted sample. Samples were then centrifuged 1800 rpm for 20 minutes at room temperature. The buffy coat was removed with a pipette and transferred to a new centrifuge tube and diluted with PBS. After an additional centrifugation at 1200 rpm, the white blood cell pellet was washed with PBS and centrifuged one last time. Cells were re-suspended in Opti-MEM and viable cells were counted using trypan blue (Invitrogen, Life Technologies Corporation, Burlington, Ontario) exclusion on a haemocytometer. An identical protocol was followed for the isolation of white blood cells, referred to as “normal lymphocytes” in the following paragraphs, from healthy volunteers. Samples grown in culture for up to six months were cultured in Opti-MEM medium supplemented with 10% heat inactivated FBS, penicillin/streptomycin and 2-mercaptoethanol.
as §2, §3

Bone Marrow Stroma = assay: Cytotoxicity assay, bone marrow stroma; type: cell-based, human; details: Homo sapiens, 96 h; bone marrow stroma (control for non-leukemia cytotoxicity); four days in culture; ± SD, three experiments
Description: as §2, §3

[1] = test system: Patient #1 B-ALL primary leukemia cells; assay: Cytotoxicity assay, primary sample Patient #1; type: cell-based, human; details: Homo sapiens, 96 h, four days in culture, Alamar blue assay or automated microscopy, one complete study
Description: as §4, §2, §3

[2] = test system: Patient #2 relapsed AML primary leukemia cells; assay: Cytotoxicity assay, primary sample Patient #2; type: cell-based, human; details: Homo sapiens, 96 h, four days in culture, Alamar blue assay or automated microscopy, one complete study
Description: as §4, §2, §3

[3] = test system: Patient #3 AML/CML primary leukemia cells; assay: Cytotoxicity assay, primary sample Patient #3; type: cell-based, human; details: Homo sapiens, 96 h, four days in culture, Alamar blue assay or automated microscopy, one complete study
Description: as §4, §2, §3

[4] = test system: Patient #4 infant leukemia primary cells; assay: Cytotoxicity assay, primary sample Patient #4; type: cell-based, human; details: Homo sapiens, 96 h, four days in culture, Alamar blue assay or automated microscopy, one complete study
Description: as §4, §2, §3

[5] = test system: Patient #5 ALL/AML primary leukemia cells; assay: Cytotoxicity assay, primary sample Patient #5; type: cell-based, human; details: Homo sapiens, 96 h, read-out: IC50, Patient #5 ALL/AML
Description: as §4, §2, §3

[6] = test system: normal cells versus leukemia cell lines; assay: Comparison of cytotoxicity IC50 values, normal cells versus leukemia cell lines; type: cell-based, human; details: normal lymphocytes and bone marrow stroma versus leukemia cell lines of Table 2
Description: as §2, §3

Aurora-C = details: read-out: Targets (IC50 Value): Aurora-C; literature values; ref [10],[40],[44]–[64] as listed per inhibitor in Table 1; cited from earlier work
Aurora-B = test system: Aurora-B; parameters: method as in earlier work; details: literature values; ref [10],[22],[27],[40],[44]–[64] as listed per inhibitor in Table 1; read-out: Targets (IC50 Value): Aurora-B; cited from earlier work
[7] = primary sample, four days in culture, Alamar blue assay or automated microscopy, one complete study

Row | SMILES | IC50 (C1 B-ALL cell line) | IC50 (SEM B-ALL cell line) | IC50 (B1 B-ALL cell line) | IC50 (UOCB1 B-ALL cell line) | IC50 (Nalm6 B-ALL cell line) | IC50 (KOPN8 B-ALL cell line) | IC50 (CEM T-ALL cell line) | IC50 (Molt-3 T-ALL cell line) | IC50 (Molm13 AML cell line) | IC50 (MV4-11 AML cell line) | IC50 (TIB-202 AML cell line) | IC50 (NB4 APML cell line) | IC50 (HL-60 APML cell line) | IC50 (HL-60 RA APML cell line) | IC50 (Normal Lymphocytes) | IC50 (Bone Marrow Stroma) | IC50 [1] | IC50 [2] | IC50 [3] | IC50 [4] | further results
1 | Cc1nc(N)sc1-c1ccnc(Nc2ccc(N3CCOCC3)cc2)n1 [CYC116] | 200 ± 100 nM | 100 ± 4 nM | 1000 ± 600 nM | 200 ± 90 nM | 500 ± 300 nM | 1000 ± 600 nM | 70 ± 9 nM | 70 ± 20 nM | 400 ± 200 nM | 5 ± 4 nM | 600 ± 50 nM | 3000 ± 2000 nM | 7000 ± 3000 nM | 300 ± 80 nM | > 10000 nM | 5000 ± 2000 nM | 10 nM | 70 nM | > 10000 nM | > 10000 nM | IC50 [5, 7]: 0.4 nM; IC50 values for the normal cells compared with IC50 values for the leukemia cell lines (potential therapeutic window) [6]: lower than the IC50 values for the normal cells, but not as pronounced; IC50 (Aurora-C): 69 nM
2 | CCc1cccc(CC)c1NC(=O)N1Cc2n[nH]c(NC(=O)c3ccc(N4CCN(C)CC4)cc3)c2C1 [PHA-680632] | 100 ± 50 nM | 800 ± 300 nM | 5000 ± 900 nM | 1000 ± 500 nM | 400 ± 200 nM | 60 ± 20 nM | 300 ± 100 nM | 100 ± 60 nM | 30 ± 20 nM | 300 ± 200 nM | 6000 ± 1000 nM | 900 ± 90 nM | 6000 ± 2000 nM | 90 ± 10 nM | > 10000 nM | 2000 ± 900 nM | 10 nM | 2000 nM | > 10000 nM | > 10000 nM | IC50 [5]: 0.8 nM; IC50 values for the normal cells compared with IC50 values for the leukemia cell lines (potential therapeutic window) [6]: lower than the IC50 values for the normal cells, but not as pronounced; IC50 (Aurora-B): 135 nM; IC50 (Aurora-C): 120 nM
3 | CO[C@@H](C(=O)N1Cc2n[nH]c(NC(=O)c3ccc(N4CCN(C)CC4)cc3)c2C1)c1ccccc1 [PHA-739358] | 8 ± 1 nM | 80 ± 20 nM | 2000 ± 900 nM | 60 ± 20 nM | 9 ± 0.9 nM | 2 ± 1 nM | 10 ± 6 nM | 4 ± 2 nM | 6 ± 1 nM | 3 ± 2 nM | 2000 ± 900 nM | 200 ± 100 nM | 900 ± 100 nM | 7 ± 1 nM | > 10000 nM | 3000 ± 1000 nM | 0.9 nM | 300 nM | > 10000 nM | > 10000 nM | IC50 [5, 7]: 1 nM; IC50 values for the normal cells compared with IC50 values for the leukemia cell lines (potential therapeutic window) [6]: lower than the IC50 values for the normal cells, but not as pronounced; IC50 (Aurora-C): 61 nM
